Literature values in US20080032954A1, “Vascular Damaging Agents for Administration as an Intravenous Infusion” (priority 2004, published 2008).

Legend:
[1] = patients, 30 minute intravenous infusion once weekly
[2] = phase I study, patients with advanced cancer
[3] = test system: proliferating endothelial cells
tumour = conditions: nude rats
[4] = patients, intravenous infusion at three-week intervals
[5] = 20 mg/kg as 24-hour subcutaneous infusion versus 5 to 10 second IV bolus

Structure (SMILES): COc1ccc(/C=C\c2cc(OC)c(OC)c(OC)c2)cc1NC(=O)[C@@H](N)CO [AVE8062A]
- hypotension [1]: instances of asymptomatic hypotension

Structure (SMILES): COc1ccc(/C=C\c2cc(OC)c(OC)c(OC)c2)cc1OP(=O)(O)O [combretastatin A4 phosphate]
- hemodynamic and cardiac toxic events [2]: numerous hemodynamic and cardiac toxic events were observed

Structure (SMILES): COc1cc2c(c(OC)c1OC)-c1ccc(OP(=O)(O)O)cc1[C@@H](NC(C)=O)CC2 [ZD6126, (5S)-5-(acetylamino)-9,10,11-trimethoxy-6,7-dihydro-5H-dibenzo[a,c]cyclohepten-3-yl dihydrogen phosphate]
- effect on tubulin cytoskeleton and cell shape [3]: disrupts the tubulin cytoskeleton causing rounding up and/or detachment of proliferating endothelial cells
- ischemic changes on ECG (one of the two patients with troponin I elevation, 10 minute IV infusion once every three weeks): reversible grade 2 ischemic changes on ECG
- elevation in troponin I (patients, 10 minute intravenous infusion once every three weeks): two patients exhibited grade 3 transient asymptomatic elevation in troponin I
- blood pressure change (the other patient with troponin I elevation, 10 minute IV infusion once every three weeks): increase in blood pressure one hour after dosing
- toxicity compared to single intravenous bolus (tumour; [5]): significant increases in toxicity
- tumour necrosis compared to single intravenous bolus (tumour; [5]): no increase in tumour necrosis
- tolerability (tumour; 50 mg/kg as 24-hour subcutaneous infusion, in contrast to bolus of the same dose): not tolerated

Structure (SMILES): COc1ccc(/C=C\c2cc(OC)c(OC)c(OC)c2)cc1O [combretastatin A4]
- toxicity profile, 10-minute versus 60-minute infusion [4]: no difference in the toxicity profile
